Assay results published in US8592468B2, “Bacterial thioredoxin reductase inhibitors and methods for use thereof” (Thioredoxin Systems AB, priority 2006, dated 2013).
≈ marks a conversion by molar mass, not a printed value. Where two headings read alike, the source gives them in different places.

What was measured:
E. coli TrxR [1] = target: T1, E. coli TrxR (Escherichia coli (strain K12), UniProt P0A9P4); assay: Inhibition of E. coli TrxR reduction of Trx, DTNB coupled assay (Lineweaver-Burk); assay type: biochemical
Protocol: FIGS. 4A and 4B show the effect of ebselen (FIG. 4A) and ebselen diselenide (FIG. 4B) on DTNB reduction by E. coli thioredoxin and thioredoxin reductase. Assays were contained in 0.50 ml semi-microcuvettes containing 0.24 mM NADPH, 1 mM DTNB in 0.10 M Tris-Cl, pH 8.0, 1 mM EDTA. The increase in A412 was measured against a blank using 10 nM E. coli TrxR in the presence of 2 μM (grey filled points), 5 μM (white filled points), 10 μM (black filled points) E. coli Trx with 0 (squares), 0.5 μM (triangles), 1 μM (rhombus), 2 μM (rounds) of ebselen or ebselen diselenide.
(A) Ebselen concentrations were 0 μM (▴), 0.5 μM (∀), 1 μM (▪) and 2 μM (Δ). […] (B) Ebselen concentrations were 0 μM (▴), 1 μM (▪) and 2 μM (∀).
(§1) The activity of the enzyme was determined at room temperature using an Ultrospec 3000 UV/Visual spectrophotometer (Amersham Biosciences). […] The enzyme-catalysed reactions were followed at 340 nm using the standard calculation of NADPH oxidation to NADP^+ with a molar extinction coefficient of 6200 M^−1 cm^−1 (32, 34). The conditions of the assay of bacterial thioredoxin reductase have been described (32, 34) using either 1 mM DTNB or 160 μM insulin as a substrate. In DTNB coupled assays, 240 μM NADPH and 1 mM DTNB were used in the TE buffer and formation of the TNB was measured at 412 nm, where TNB has an extinction coefficient of 13600 M^−1 cm^−1.
(§2) Further we examined the effect of ebselen in the reduction of disulphide by E. coli Trx and TrxR using both DTNB and insulin as substrates. […] FIGS. 4A and 4B show the effect of ebselen (4A) and ebselen diselenide (4B) on DTNB reduction by E. coli thioredoxin and thioredoxin reductase. Assays in semi-microcuvettes with 0.5 ml solution contained 0.24 mM NADPH, 1 mM DTNB in 50 mM Tris-Cl/1 mM EDTA, pH 7.5 buffer. (A) In the presence of 2 μM (grey filled points), 5 μM (white filled points) and 10 μM (black filled points) of E. coli Trx and 7.6 nM of E. coli TrxR with ebselen at concentrations of zero (squares), 0.5 μM (triangles), 1 μM (rhombus), and 2 μM (rounds), the increase in A412 was measured against a blank. (B) In the presence of 2 μM (grey filled points), 5 μM (white filled points) and 10 μM (black filled points) of E. coli Trx and 10 nM of E. coli TrxR, with ebselen diselenide at concentrations of zero (squares), 1 μM (triangles) and 2 μM (rounds), the increase in A412 was measured against a blank.

E. coli TrxR [2] = target: T1, E. coli TrxR; assay type: biochemical
Protocol: In FIG. 6A, 10 μM of ebselen (▴) and 10 μM of PZ25 (▪) were used as substrate of 25 nM calf thymus TrxR. In FIG. 6B, 10 μM of PZ25 was used as substrate for 10 nM calf thymus TrxR (◯) and 10 nM of E. coli TrxR (●). Reactions were started by adding enzymes in cuvettes containing 500 μl TE buffer with 100 μM NADPH, of which the consumption were followed by the changes of the absorption at 340 nm against identical blank without enzymes.
Reactions were started by adding enzymes to cuvettes containing 500 μl TE buffer with 100 μM NADPH and 16 μM compounds. The NADPH consumption was followed by the changes of the absorption at 340 nm against identical blank without enzymes.
as §1, §2

[3] = system: Mycobacterium tuberculosis; assay: Inhibition of Mycobacterium tuberculosis by ebselen, radiometric BACTEC 460 system; assay type: cell-based
[4] = system: mammalian thioredoxin reductases; assay: Inhibition of mammalian thioredoxin reductases; assay type: biochemical
[5] = target: E. coli ribonucleotide reductase (Escherichia coli (strain K12), UniProt P00452+P69924); assay: Inhibition of E. coli ribonucleotide reductase (data not shown); assay type: biochemical
Mammalian TrxR = conditions: from reference; cited from earlier work
Staphylococcus aureus = conditions: cited from earlier work
E. coli NHHJ = conditions: strains of Enterobacteriaceae like E. coli NHHJ; cited from earlier work
E. coli Trx-(SH)2 = E. coli Trx-(SH)2 (Escherichia coli (strain K12), UniProt P0AA25); conditions: fluorescence spectroscopy; cited from earlier work
wild type DHB4 E. coli = assay: Bacterial inhibition by ebselen derivates, MIC; conditions: Escherichia coli, DHB4E.COLI, 4 h, read-out: MIC for wild type DHB4 E. coli
Protocol: (§3) E. coli DHB4 strains wt, gshA^−, gor^−, oxyR^− were cultured overnight in LB medium. […] OD 600 was detected and DMSO was used as the control. […] The data are the means of two experiments.

Gor^- DHB4 E. coli = assay: Bacterial inhibition by ebselen derivates, MIC; conditions: Escherichia coli, 4 h, read-out: MIC for Gor^- DHB4 E. coli
Protocol: as §3

T1 sequence (P0A9P4 2-321 limits assumed): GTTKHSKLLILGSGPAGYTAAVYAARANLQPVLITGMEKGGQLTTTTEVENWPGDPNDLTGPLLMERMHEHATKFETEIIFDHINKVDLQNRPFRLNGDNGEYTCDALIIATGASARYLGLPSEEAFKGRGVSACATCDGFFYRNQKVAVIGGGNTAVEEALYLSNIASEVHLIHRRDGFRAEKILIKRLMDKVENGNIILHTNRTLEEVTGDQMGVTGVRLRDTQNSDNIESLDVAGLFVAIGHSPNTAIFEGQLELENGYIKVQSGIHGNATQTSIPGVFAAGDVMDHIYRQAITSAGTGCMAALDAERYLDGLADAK
E. coli ribonucleotide reductase, sequence (P00452 whole entry, looked up): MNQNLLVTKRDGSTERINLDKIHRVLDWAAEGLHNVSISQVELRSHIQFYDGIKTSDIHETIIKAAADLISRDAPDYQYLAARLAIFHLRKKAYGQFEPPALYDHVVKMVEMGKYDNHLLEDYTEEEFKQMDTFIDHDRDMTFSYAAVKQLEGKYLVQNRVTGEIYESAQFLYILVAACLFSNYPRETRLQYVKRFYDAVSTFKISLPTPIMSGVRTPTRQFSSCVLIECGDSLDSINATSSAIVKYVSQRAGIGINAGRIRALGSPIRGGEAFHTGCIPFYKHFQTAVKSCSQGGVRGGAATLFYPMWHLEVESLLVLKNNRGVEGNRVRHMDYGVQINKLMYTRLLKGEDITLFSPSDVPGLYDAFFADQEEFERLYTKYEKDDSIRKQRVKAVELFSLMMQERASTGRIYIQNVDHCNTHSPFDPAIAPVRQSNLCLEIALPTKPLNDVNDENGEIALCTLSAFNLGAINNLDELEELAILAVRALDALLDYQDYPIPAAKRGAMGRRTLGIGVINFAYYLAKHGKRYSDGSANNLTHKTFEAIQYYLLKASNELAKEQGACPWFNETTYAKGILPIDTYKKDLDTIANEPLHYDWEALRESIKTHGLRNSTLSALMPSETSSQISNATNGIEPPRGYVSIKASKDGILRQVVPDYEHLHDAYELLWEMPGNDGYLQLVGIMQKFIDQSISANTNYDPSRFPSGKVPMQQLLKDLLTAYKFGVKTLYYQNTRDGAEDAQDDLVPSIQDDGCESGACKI
E. coli ribonucleotide reductase, sequence (P69924 whole entry, looked up): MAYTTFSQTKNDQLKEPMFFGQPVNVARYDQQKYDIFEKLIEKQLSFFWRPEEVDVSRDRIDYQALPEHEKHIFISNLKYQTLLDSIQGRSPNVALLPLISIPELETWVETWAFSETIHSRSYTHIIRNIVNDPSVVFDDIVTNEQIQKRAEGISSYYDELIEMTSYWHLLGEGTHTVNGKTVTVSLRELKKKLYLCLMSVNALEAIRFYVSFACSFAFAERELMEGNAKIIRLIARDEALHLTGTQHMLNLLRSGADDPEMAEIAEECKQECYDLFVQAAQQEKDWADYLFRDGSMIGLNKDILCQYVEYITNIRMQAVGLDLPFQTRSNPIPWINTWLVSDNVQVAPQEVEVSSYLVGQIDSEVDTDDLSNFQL

With `O=c1c2ccccc2[se]n1-c1ccccc1` [EbSe 6, 2-phenyl-1,2-benzisoselenazol-3(2H)-one] the “inhibition of E. coli TrxR (in words)” value (E. coli TrxR [1]) was “strongly inhibited”, the Ki (E. coli TrxR [1]; Ki (competitive inhibitor of Trx reduction by E. coli TrxR), from Lineweaver-Burk slopes) was 150 nM and the “oxidation of NADPH when directly added to E. coli TrxR and NADPH” value (E. coli TrxR [2]) was “no oxidations of NADPH”. For the same molecule, the MIC ([3]; Mycobacterium tuberculosis) was under 20 µg/mL, the Sensitivity to ebselen ([3]; strain BTB 98-310 (MDR), ebselen 10 μg/ml) was “R” and the Sensitivity to ebselen ([3]; strain BTB 98-310 (MDR), ebselen 20 μg/ml) was “S”. The Sensitivity to ebselen ([3]; strain BTB 98-310 (MDR), ebselen 40 μg/ml) was “S”, the Sensitivity to ebselen ([3]; strain BTB 98-310 (MDR), ebselen 80 μg/ml) was “S” and the Sensitivity to ebselen ([3]; strain H37Rv, ebselen 10 μg/ml) was “R”. For the same molecule, the Sensitivity to ebselen ([3]; strain H37Rv, ebselen 20 μg/ml) was “S”, the Sensitivity to ebselen ([3]; strain H37Rv, ebselen 40 μg/ml) was “S” and the Sensitivity to ebselen ([3]; strain H37Rv, ebselen 80 μg/ml) was “S”. For the same molecule, the Sensitivity to ebselen ([3]; strain Panel3:24 (MDR), ebselen 10 μg/ml) was “R”, the Sensitivity to ebselen ([3]; strain Panel3:24 (MDR), ebselen 20 μg/ml) was “S” and the Sensitivity to ebselen ([3]; strain Panel3:24 (MDR), ebselen 40 μg/ml) was “S”. For the same molecule, the Sensitivity to ebselen ([3]; strain Panel3:24 (MDR), ebselen 80 μg/ml) was “S”, the “inhibitory activity of mammalian thioredoxin reductases” value [4] was “no inhibitory activity” and the “inhibition of E. coli ribonucleotide reductase” value [5] was “effective direct inhibitor”. For the same molecule, the Km (Mammalian TrxR) was 2.5 µM, the kcat (Mammalian TrxR) was 9.8 s⁻¹ and the kcat/KM (Mammalian TrxR) was 3.92e+06 M⁻¹ s⁻¹. For the same molecule, the “mode of antibacterial action” value (Staphylococcus aureus; S. aureus strains) was “bacteriocidal”, the concentration inhibiting growth (Staphylococcus aureus; Staphylococcus aureus 209P) was 0.20 µg/mL and the “MIC for 90% of S. aureus strains” value (Staphylococcus aureus) was 1.56 μg per ml. The “sensitivity of S. aureus relative to E. coli” value (Staphylococcus aureus) was 100 fold, the concentration inhibiting growth (Staphylococcus aureus; methicillin resistant Staphylococcus aureus) was 0.20 μg per ml and the “concentration required to inhibit growth” value (E. coli NHHJ) was “up to 50 μg per ml”. The “second-order rate constant of reaction with reduced E. coli Trx” value (E. coli Trx-(SH)2) was 2e+07 M⁻¹ s⁻¹, the MIC (wild type DHB4 E. coli) was 40 µM (≈ 11 µg/mL) and the MIC (Gor^- DHB4 E. coli) was 15 µM (≈ 4.11 µg/mL).
